Earlier results as cited in patent publication US20090105346A1, “Novel crystalline forms of armodafinil and preparation thereof” (priority 2007, published 2009).

Conditions: S enantiomer of modafinil compared with R enantiomer; Prisinzano et al., Tetrahedron: Asymmetry (2004)

Q: With `NC(=O)C[S+]([O-])C(c1ccccc1)c1ccccc1` (single isomer, unassigned) [S enantiomer] as the compound, how does the “elimination from the body relative to the R enantiomer” value read?
A: Its value is “three times faster”.
